# Results from PubChem BioAssay (NCI).
# “And” between values parts separate entries of the source, which are not always exact repeats. Identical values can stand only once.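 Five compound concentrations were applied to cells in 96-well plates for 48 hours; endpoints were derived by simple linear interpolation of the resulting dose-response curve. GI50 is the concentration that inhibits growth by half. At the TGI there is no net growth.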 *1 amine or outer side, *2 acyl side, *3 side chain or, on linkers, in order; H or OH if unused. Where a SMILES comes first, the peptide text is derived from it. Bridges are numbered along the chain shown (N, C = ends). Roman numbers before positions name the chains, in order. [ ]: non-standard residue; d: D form. Actinocin(9to1) = Cc1c2oc3c(C)ccc(C(=O)[*:1])c3nc-2c(C(=O)[*:2])c(N)c1=O; NMeT = CN[CH](C(=O)O)[CH](C)O; Sar = CNCC(=O)O
# Tests used:
# Assay in all cases: inhibition of tumour cell growth, NCI panel, 48 h
# MDA-MB-231 breast = system: MDA-MB-231 breast
# SNB-19 CNS = system: SNB-19 CNS
# SK-MEL-28 melanoma = system: SK-MEL-28 melanoma
# ACHN renal = system: ACHN renal
# DU-145 prostate = system: DU-145 prostate
# UACC-62 melanoma = system: UACC-62 melanoma
# EKVX NSCLC = system: EKVX NSCLC
# M14 melanoma = system: M14 melanoma
# OVCAR-5 ovarian = system: OVCAR-5 ovarian
# K-562 leukemia = system: K-562 leukemia
SMILES,TGI (MDA-MB-231 breast),TGI (SNB-19 CNS),TGI (SK-MEL-28 melanoma),TGI (ACHN renal),TGI (DU-145 prostate),TGI (UACC-62 melanoma),TGI (EKVX NSCLC),TGI (M14 melanoma),TGI (OVCAR-5 ovarian),TGI (K-562 leukemia),GI50 (MDA-MB-231 breast),GI50 (SNB-19 CNS),GI50 (SK-MEL-28 melanoma),GI50 (ACHN renal),GI50 (DU-145 prostate),GI50 (UACC-62 melanoma),GI50 (EKVX NSCLC),GI50 (M14 melanoma),GI50 (OVCAR-5 ovarian),GI50 (K-562 leukemia)
Cc1cc(=O)oc2c(C)c(O)ccc12,> 100 µM,> 100 µM,> 100 µM,> 100 µM,> 100 µM,> 100 µM,> 100 µM,> 100 µM,> 100 µM,> 100 µM,,,,,,,,,,
O=C1CC(=O)N(C(=O)c2nn(-c3ccc(Cl)cc3)cc2O)N1,> 100 µM,> 100 µM,> 100 µM,> 100 µM,> 100 µM,9.41 µM,> 100 µM,27.8 µM,> 100 µM,8.15 µM,1.84 µM,0.5 µM,2.82 µM,0.544 µM,0.923 µM,0.381 µM,0.845 µM,0.651 µM,4.17 µM,0.292 µM
O=C(O)CCCSc1ccccc1,> 100 µM,> 100 µM,> 100 µM,> 100 µM,> 100 µM,> 100 µM,> 100 µM,> 100 µM,> 100 µM,> 100 µM,,,,,,,,,,
"Cc1c2oc3c(C)ccc(C(=O)NC4C(=O)NC(C(C)C)C(=O)N5CCCC5C(=O)N(C)CC(=O)N(C)C(C(C)O)C(=O)OC4C)c3nc-2c(C(=O)NC2C(=O)NC(C(C)C)C(=O)N3CCCC3C(=O)N(C)CC(=O)N(C)C(C(C)O)C(=O)OC2C)c(N)c1=O (stereo unspecified) (I: TVP[Sar][NMeT] / II: TVP[Sar][NMeT]; ester I:1-I:C, II:1-II:C; linker I:N-II:N via Actinocin(9to1); configuration not given here)",> 69.9 µM,> 100 µM,4.96 µM and > 1 µM,> 26.6 µM,> 100 µM,1.54 µM,25 µM and > 1 µM,> 56.9 µM,> 43.4 µM,> 36.5 µM,3.53 µM and > 1 µM,2.3 µM and 0.572 µM,,,5.98 µM and > 1 µM,,2.56 µM and > 1 µM,7.14 µM and > 1 µM,4.29 µM and > 1 µM,
C=C1C(=O)OC2C1CCC(C)C1C=CC(=O)C12C (stereo unspecified),4.83 µM,46.1 µM,4.93 µM,3.25 µM,7.36 µM,4.11 µM,25.2 µM,4.85 µM,13.8 µM,11.3 µM,,,,,,,,,,
COc1ccc(-c2oc(=O)ccc2-c2cc(OC)c(OC)c(OC)c2)cc1O,> 100 µM,> 100 µM,> 100 µM,> 95.2 µM,> 100 µM,> 49.9 µM,> 100 µM,30.4 µM,> 100 µM,> 100 µM,2.8 µM,4.76 µM,8.85 µM,5.05 µM,2.05 µM,1.23 µM,6.98 µM,0.833 µM,12.7 µM,0.439 µM
C=C1C(C2(C)C(OC(C)=O)CC(=O)OC(C)(COC(C)=O)C2CC(=O)OC)C(OC=O)C(OC(=O)C(O)C(C)CC)C2(C)C(c3ccoc3)CC(=O)C12O (stereo unspecified),> 100 µM,> 100 µM,> 100 µM,> 52.8 µM,> 100 µM,> 100 µM,> 100 µM,> 100 µM,> 100 µM,> 31.6 µM,,,,,,,,,,
CS(=O)(=O)CCNCc1ccc(-c2ccc3ncnc(Nc4ccc(OCc5ccccc5)c(Br)c4)c3c2)o1,9.87 µM,> 25 µM,9.08 µM,> 25 µM,> 25 µM,9.75 µM,> 25 µM,10.3 µM,> 25 µM,> 20.6 µM,4.85 µM,> 20.8 µM,4.5 µM,1.13 µM,12.6 µM,5.03 µM,0.526 µM,4.98 µM,7.05 µM,7.72 µM
COc1ccc(-c2cc(-c3ccc(Cl)cc3)nc(SCCCC(=O)NO)n2)cc1,5.3 µM,> 27.1 µM,5.47 µM,1.88 µM,6 µM,2.22 µM,8.76 µM,3.12 µM,6.92 µM,> 100 µM,1.22 µM,2.18 µM,1.69 µM,0.379 µM,0.826 µM,0.853 µM,1.21 µM,0.786 µM,1.37 µM,1.2 µM
Nc1c2c(c(O)c3c1=C(CO)C=N3)=NCCS2,0.834 µM,0.284 µM,0.804 µM,0.844 µM,0.253 µM,0.33 µM,1.2 µM,0.215 µM,0.346 µM,0.682 µM,0.296 µM,0.147 µM,0.283 µM,0.269 µM,0.127 µM,0.156 µM,0.311 µM,0.0839 µM,0.184 µM,0.243 µM
C=C1C(=O)O[C@H]2[C@H]1CC/C(COC(=O)C(=O)c1cn(C)c3ccc(Cl)cc13)=C\CC[C@@]1(C)O[C@@H]21,4.3 µM,6.13 µM,3.72 µM,2.5 µM,3.63 µM,2.08 µM,4.29 µM,2.74 µM,5.82 µM,> 100 µM,1.03 µM,2.16 µM,1.49 µM,1.07 µM,1.69 µM,0.356 µM,1.92 µM,1.11 µM,1.91 µM,1.65 µM
Cc1ccc(Cc2cnc(NC(=O)/C=C/c3cccc(C)c3)s2)cc1,5.08 µM,23.1 µM,> 100 µM,4.66 µM,> 66.3 µM,25.3 µM,> 100 µM,0.843 µM,> 70.8 µM,> 100 µM,0.397 µM,0.224 µM,1.35 µM,0.278 µM,0.395 µM,0.0645 µM,0.403 µM,0.0808 µM,0.492 µM,0.0469 µM
Cc1nc2sc(C(=O)Nc3cccc4ccccc34)c(N)c2cc1C(O)c1ccccc1 (stereo unspecified),5.36 µM,> 66.7 µM,24.2 µM,19.2 µM,6.67 µM,12.3 µM,37.5 µM,15 µM,> 100 µM,> 39.6 µM,0.15 µM,0.108 µM,1.14 µM,0.0726 µM,0.0804 µM,0.0747 µM,0.375 µM,0.0409 µM,0.28 µM,0.0442 µM
O=C(O)c1ccc(Oc2nccc(-c3c(-c4ccc(F)cc4)ncn3C3CCNCC3)n2)cc1,> 25 µM,> 25 µM,> 25 µM,> 25 µM,> 25 µM,> 25 µM,> 25 µM,> 25 µM,> 25 µM,> 25 µM,> 25 µM,> 25 µM,> 25 µM,> 25 µM,> 25 µM,> 25 µM,> 25 µM,> 25 µM,> 25 µM,> 25 µM
C[C@]12CC[C@@H]3c4cc(-c5ccc(F)cc5)c(O)cc4CC[C@H]3[C@@H]1CC[C@@H]2O,23.9 µM,22.6 µM,28 µM,18.9 µM,25 µM,25.2 µM,20.3 µM,34.5 µM,39.2 µM,18.3 µM,7.86 µM,9.61 µM,14.2 µM,5.86 µM,12.5 µM,12 µM,6.32 µM,14.2 µM,19.1 µM,3.06 µM
O=C1NC(=O)C(c2ccccc2Cl)=C1Nc1cc(Cl)c(O)c(Cl)c1,> 25 µM,> 25 µM,> 25 µM,> 25 µM,> 25 µM,> 25 µM,> 25 µM,> 25 µM,> 25 µM,> 25 µM,> 25 µM,> 25 µM,> 14.6 µM,> 23.7 µM,> 25 µM,11.4 µM,> 25 µM,> 19.5 µM,> 25 µM,12.3 µM
COc1ccc(/C(COc2ccc3c(=O)c(-c4ccccc4)coc3c2)=N\O)cc1,18.5 µM,> 86.7 µM,> 90.9 µM,34 µM,33.4 µM,21.2 µM,38.7 µM,23.8 µM,> 96.5 µM,> 100 µM,0.698 µM,14.9 µM,10.2 µM,11.3 µM,4.09 µM,0.662 µM,4.94 µM,8.49 µM,,0.0674 µM
COC(=O)c1cc2c3ccccc3n3c(=O)c4cc5ccccc5nc4c(n1)c23,> 100 µM,> 100 µM,> 100 µM,> 100 µM,> 100 µM,> 100 µM,> 100 µM,> 100 µM,> 100 µM,> 100 µM,> 100 µM,> 100 µM,> 100 µM,> 100 µM,> 100 µM,> 100 µM,> 100 µM,> 100 µM,> 100 µM,> 100 µM
C#CC1(OC(C)=O)CCC2C3CC=C4C=C(OC(C)=O)CCC4(C)C3CCC21C (stereo unspecified),58.3 µM,> 100 µM,53.6 µM,70.7 µM,97.4 µM,44.5 µM,80 µM,70.3 µM,> 100 µM,83.2 µM,,,,,,,,,,
CCCN(CCC)c1ccc(/C=C/c2ccc3cc(OCC)ccc3n2)cc1,> 100 µM,> 100 µM,> 100 µM,> 100 µM,> 100 µM,> 100 µM,> 100 µM,> 100 µM,> 100 µM,> 100 µM,> 100 µM,> 100 µM,> 100 µM,63.4 µM,> 100 µM,72.8 µM,91.4 µM,> 100 µM,> 100 µM,9.37 µM
CNC/C(Cl)=N/S(=O)(=O)c1ccc(C)cc1,28.5 µM,68.2 µM,> 100 µM,35.8 µM,18.1 µM,21.9 µM,40.4 µM,39.7 µM,47.5 µM,> 100 µM,,,,,,,,,,
C=C(CN1CCN(c2cccc(C(F)(F)F)n2)CC1)c1ccc(C(=O)Nc2ccccc2N)cc1,34.2 µM and > 72.7 µM,29.3 µM and 23.5 µM,> 100 µM and 15.5 µM,> 100 µM,> 100 µM,> 100 µM,> 100 µM,> 100 µM,> 100 µM,> 100 µM,4.63 µM and 1.02 µM,0.65 µM and 0.708 µM,2.08 µM and 0.422 µM,,1.46 µM and 0.634 µM,0.97 µM and 0.51 µM,24.3 µM and 2.73 µM,0.966 µM and 0.436 µM,0.712 µM and 3.63 µM,0.623 µM
CC(=Nc1ccccc1)C1=C(O)C(Cc2ccc(O)cc2)NC1=O (stereo unspecified),> 100 µM,> 100 µM,> 100 µM,> 100 µM,0.994 µM,> 100 µM,> 100 µM,0.269 µM,> 100 µM,> 50.7 µM,1.06 µM,0.23 µM,0.0594 µM,0.0738 µM,0.178 µM,0.058 µM,0.16 µM,0.0469 µM,0.548 µM,0.044 µM
CNC(=O)c1ccc(N2C(=S)N(c3ccc(C#N)c(C(F)(F)F)c3)C(=O)C2(C)C)cc1F,> 60.6 µM,> 100 µM,> 96.1 µM,> 62.9 µM,> 100 µM,> 72.4 µM,> 80.5 µM,> 65.3 µM,> 92.4 µM,> 100 µM,> 38.6 µM,> 61.2 µM,> 51.8 µM,22.4 µM,53.9 µM,26.9 µM,25 µM,32.4 µM,> 47.5 µM,33.9 µM
CC1=C(C(=O)Nc2ccc(Cl)c(Cl)c2)C(c2cccc(Cl)c2)NC(=O)N1 (stereo unspecified),11.7 µM,21 µM,,20.8 µM,14.3 µM,12.3 µM,16.2 µM,16.1 µM,30.9 µM,48.4 µM,4.44 µM,9.52 µM,,9.07 µM,7.58 µM,5.9 µM,7.84 µM,7.79 µM,11.2 µM,13.6 µM
c1ccc2c(NCCCCCCNc3c4ccccc4nc4ccccc34)c3ccccc3nc2c1,2.05 µM,4.92 µM,,1.72 µM,2.76 µM,2.08 µM,5.69 µM,2.58 µM,2.71 µM,> 100 µM,,,,,,,,,,
